Measured values reported in patent publication US20250268877A1 (BIOGEN MA INC., priority 2020, published 2025).
Converted amounts (≈) assume the structure as drawn.

Key:
[1] = Kinetic solubility assay (CLND), potassium phosphate buffer pH 6.8; assay type: physicochemical; details: potassium phosphate buffer, pH 6.8, aqueous buffer, kinetic from dmso stock, pH 6.8, 2% DMSO, 24 hours at ambient temperature
[2] = molecular target: MDR1 (Homo sapiens (Human), UniProt P08183); experiment: MDR1-MDCK assay (apparent permeability, efflux ratio); assay type: in vitro ADME; details: human, MDCK-MDR1, 1 μM, read-out: MDR1-MDCK_Efflux Ratio
[3] = molecular target: IRAK4 (Homo sapiens (Human), UniProt Q9NWZ3); experiment: IRAK4 2-hour 1 mM ATP Biochemical Assay (MesoScale Detection format); details: 100 pM IRAK4, read-out: IRAK4 IC50
IRAK4, sequence (Q9NWZ3 whole entry): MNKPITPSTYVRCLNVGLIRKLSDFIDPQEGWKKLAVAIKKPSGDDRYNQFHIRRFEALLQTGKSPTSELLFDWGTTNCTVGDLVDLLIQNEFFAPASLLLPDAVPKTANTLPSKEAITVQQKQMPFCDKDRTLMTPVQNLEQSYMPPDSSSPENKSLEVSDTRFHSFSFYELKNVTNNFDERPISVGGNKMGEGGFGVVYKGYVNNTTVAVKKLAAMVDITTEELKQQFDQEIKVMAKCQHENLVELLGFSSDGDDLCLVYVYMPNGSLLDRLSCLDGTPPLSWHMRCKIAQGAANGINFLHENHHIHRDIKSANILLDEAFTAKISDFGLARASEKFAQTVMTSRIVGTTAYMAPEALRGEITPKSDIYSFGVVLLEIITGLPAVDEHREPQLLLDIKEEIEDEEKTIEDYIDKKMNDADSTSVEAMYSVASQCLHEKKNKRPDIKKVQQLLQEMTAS

MDR1, sequence (P08183 whole entry): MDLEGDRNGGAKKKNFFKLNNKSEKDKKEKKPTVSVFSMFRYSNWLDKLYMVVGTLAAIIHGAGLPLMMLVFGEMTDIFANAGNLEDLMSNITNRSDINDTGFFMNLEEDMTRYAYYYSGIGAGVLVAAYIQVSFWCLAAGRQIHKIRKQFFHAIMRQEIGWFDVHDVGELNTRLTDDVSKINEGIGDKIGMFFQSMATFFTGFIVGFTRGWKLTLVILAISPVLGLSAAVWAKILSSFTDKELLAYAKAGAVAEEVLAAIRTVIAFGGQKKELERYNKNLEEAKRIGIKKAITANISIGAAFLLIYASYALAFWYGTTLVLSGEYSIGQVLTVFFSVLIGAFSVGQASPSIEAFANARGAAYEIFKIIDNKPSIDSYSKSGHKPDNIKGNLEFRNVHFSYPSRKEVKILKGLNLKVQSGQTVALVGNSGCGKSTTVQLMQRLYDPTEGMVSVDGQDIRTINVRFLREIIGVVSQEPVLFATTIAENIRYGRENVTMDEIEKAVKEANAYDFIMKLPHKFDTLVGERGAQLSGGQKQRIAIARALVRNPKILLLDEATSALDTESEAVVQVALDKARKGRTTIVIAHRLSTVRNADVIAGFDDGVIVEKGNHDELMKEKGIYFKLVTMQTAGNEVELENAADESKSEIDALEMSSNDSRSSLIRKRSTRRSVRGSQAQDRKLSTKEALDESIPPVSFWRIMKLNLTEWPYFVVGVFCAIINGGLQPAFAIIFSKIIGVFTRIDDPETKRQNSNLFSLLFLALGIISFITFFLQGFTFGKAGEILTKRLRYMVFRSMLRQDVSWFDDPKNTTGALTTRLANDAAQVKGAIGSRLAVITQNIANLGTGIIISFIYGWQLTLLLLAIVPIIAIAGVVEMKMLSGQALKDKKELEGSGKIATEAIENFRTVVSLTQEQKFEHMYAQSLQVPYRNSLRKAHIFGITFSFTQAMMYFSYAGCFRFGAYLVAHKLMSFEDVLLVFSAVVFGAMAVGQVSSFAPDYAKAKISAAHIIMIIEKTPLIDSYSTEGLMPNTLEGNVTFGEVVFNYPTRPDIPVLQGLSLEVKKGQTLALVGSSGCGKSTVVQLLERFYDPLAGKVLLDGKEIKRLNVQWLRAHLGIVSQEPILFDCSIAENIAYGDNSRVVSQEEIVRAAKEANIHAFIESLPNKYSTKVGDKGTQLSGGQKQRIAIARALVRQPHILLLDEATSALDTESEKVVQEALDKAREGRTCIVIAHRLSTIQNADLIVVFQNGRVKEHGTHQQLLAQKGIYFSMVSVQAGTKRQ

Row | solubility at 24 h [1] [µg/mL] | efflux ratio at 120 min, 1 μM [2] | IC50 [3] [nM] | Compound
1 | 16 (≈ 34.2 µM) | 4.18 |  | CC(C)Oc1nc2nn(C34COC(C)(C3)C4)cc2cc1C(=O)Nc1cccn([C@@H]2C[C@@H]2F)c1=O (racemic) [Example 32, (rac)-Cis-N-(1-(2-fluorocyclopropyl)-2-oxo-1,2-dihydropyridin-3-yl)-6-isopropoxy-2-(1-methyl-2-oxabicyclo[2.1.1]hexan-4-yl)-2H-pyrazolo[3,4-b]pyridine-5-carboxamide]
2 | 65.7 (≈ 141 µM) |  |  | CC(C)Oc1cc2nn(C34COC(C)(C3)C4)cc2cc1C(=O)Nc1cccn([C@@H]2C[C@@H]2F)c1=O (racemic) [Example 35, (racemic)-Cis-N-(1-(2-fluorocyclopropyl)-2-oxo-1,2-dihydropyridin-3-yl)-6-isopropoxy-2-(1-methyl-2-oxabicyclo[2.1.1]hexan-4-yl)-2H-indazole-5-carboxamide]
3 | 2.3 (≈ 4.97 µM) |  |  | CC(C)Oc1cc2nn(C34COC(C)(C3)C4)cc2cc1C(=O)Nc1cccn([C@@H]2C[C@H]2C)c1=O (racemic) [Example 39, Racemic-(Trans)-6-isopropoxy-2-(1-methyl-2-oxabicyclo[2.1.1]hexan-4-yl)-N-(1-(2-methylcyclopropyl)-2-oxo-1,2-dihydropyridin-3-yl)-2H-indazole-5-carboxamide]
4 | 2.8 (≈ 5.99 µM) | 2.5 |  | CC(C)Oc1nc2nn(C34COC(C)(C3)C4)cc2cc1C(=O)Nc1cccn(C2C[C@@H]2F)c1=O (mixture of isomers) [Example 42, racemic-(Trans)-N-(1-(2-fluorocyclopropyl)-2-oxo-1,2-dihydropyridin-3-yl)-6-isopropoxy-2-(1-methyl-2-oxabicyclo[2.1.1]hexan-4-yl)-2H-pyrazolo[3,4-b]pyridine-5-carboxamide]
5 |  | 1.59 | 2.3 | CC(C)Oc1cc2nn(C34COC(CF)(C3)C4)cc2cc1C(=O)Nc1cccn([C@H]2C[C@@H]2C)c1=O (single isomer, unassigned) [Example 70]
6 |  | 1.31 | 4.3 | CC(C)Oc1nc2nn(C34COC(C)(C3)C4)cc2cc1C(=O)Nc1cccn(C2(C)CC2)c1=O [Example 18, 6-Isopropoxy-2-(1-methyl-2-oxabicyclo[2.1.1]hexan-4-yl)-N-(1-(1-methylcyclopropyl)-2-oxo-1,2-dihydropyridin-3-yl)-2H-pyrazolo[3,4-b]pyridine-5-carboxamide]
7 |  | 1.91 | 6.6 | CC(C)Oc1nc2nn(C34COC(CF)(C3)C4)cc2cc1C(=O)Nc1cccn(C2(C)CC2)c1=O [Example 19, 2-(1-(Fluoromethyl)-2-oxabicyclo[2.1.1]hexan-4-yl)-6-isopropoxy-N-(1-(1-methylcyclopropyl)-2-oxo-1,2-dihydropyridin-3-yl)-2H-pyrazolo[3,4-b]pyridine-5-carboxamide]
8 |  | 1.03 | 27 | CC(C)Oc1nc2nn(C34COC(C)(C3)C4)cc2cc1C(=O)Nc1cccn([C@@H]2CC2(C)C)c1=O [Example 22, (R)—N-(1-(2,2-dimethylcyclopropyl)-2-oxo-1,2-dihydropyridin-3-yl)-6-isopropoxy-2-(1-methyl-2-oxabicyclo[2.1.1]hexan-4-yl)-2H-pyrazolo[3,4-b]pyridine-5-carboxamide]
9 |  | 1.15 | 1.3 | CC(C)Oc1nc2nn(C34COC(C)(C3)C4)cc2cc1C(=O)Nc1cccn([C@H]2CC2(C)C)c1=O [Example 23, (S)—N-(1-(2,2-dimethylcyclopropyl)-2-oxo-1,2-dihydropyridin-3-yl)-6-isopropoxy-2-(1-methyl-2-oxabicyclo[2.1.1]hexan-4-yl)-2H-pyrazolo[3,4-b]pyridine-5-carboxamide]
10 |  | 6.21 | 9 | CC(C)Oc1cc2nn(C34COC(CF)(C3)C4)cc2cc1C(=O)Nc1cccn([C@@H]2C[C@@H]2F)c1=O [Example 53, N-(1-((1R,2S)-2-fluorocyclopropyl)-2-oxo-1,2-dihydropyridin-3-yl)-2-(1-(fluoromethyl)-2-oxabicyclo[2.1.1]hexan-4-yl)-6-isopropoxy-2H-indazole-5-carboxamide]
11 |  | 2.69 | 27.4 | COCC12CC(n3cc4cc(C(=O)Nc5cccn([C@@H]6C[C@@H]6C)c5=O)c(OC(C)C)nc4n3)(CO1)C2 [Example 72, 6-isopropoxy-2-(1-(methoxymethyl)-2-oxabicyclo[2.1.1]hexan-4-yl)-N-(1-((1R,2S)-2-methylcyclopropyl)-2-oxo-1,2-dihydropyridin-3-yl)-2H-pyrazolo[3,4-b]pyridine-5-carboxamide]
12 |  | 1.51 | 43.2 | COCC12CC(n3cc4cc(C(=O)Nc5cccn([C@@H]6C[C@@H]6C)c5=O)c(OC(C)C)cc4n3)(CO1)C2 [Example 73, 6-isopropoxy-2-(1-(methoxymethyl)-2-oxabicyclo[2.1.1]hexan-4-yl)-N-(1-((1R,2S)-2-methylcyclopropyl)-2-oxo-1,2-dihydropyridin-3-yl)-2H-indazole-5-carboxamide]
13 |  | 2.07 | 26.5 | CC(C)Oc1cc2nn(C34COC(C3)C4)cc2cc1C(=O)Nc1cccn([C@@H]2C[C@@H]2C)c1=O [Example 74, 2-(2-oxabicyclo[2.1.1]hexan-4-yl)-6-isopropoxy-N-(1-((1R,2S)-2-methylcyclopropyl)-2-oxo-1,2-dihydropyridin-3-yl)-2H-indazole-5-carboxamide]
14 |  | 3.63 | 36.9 | CC(C)Oc1nc2nn(C34COC(C3)C4)cc2cc1C(=O)Nc1cccn([C@@H]2C[C@@H]2C)c1=O [Example 75, 2-(2-oxabicyclo[2.1.1]hexan-4-yl)-6-isopropoxy-N-(1-((1R,2S)-2-methylcyclopropyl)-2-oxo-1,2-dihydropyridin-3-yl)-2H-pyrazolo[3,4-b]pyridine-5-carboxamide]
15 | 13.6 (≈ 29.4 µM) |  |  | CC(C)Oc1cc2nn(C34COC(C)(C3)C4)cc2cc1C(=O)Nc1cccn([C@H]2C[C@H]2C)c1=O [Example 96, 6-isopropoxy-2-(1-methyl-2-oxabicyclo[2.1.1]hexan-4-yl)-N-(1-((1S,2R)-2-methylcyclopropyl)-2-oxo-1,2-dihydropyridin-3-yl)-2H-indazole-5-carboxamide]

Row | Compound | solubility at 24 h [1] [µg/mL] | efflux ratio at 120 min, 1 μM [2] | IC50 [3] [nM]
16 | CC[C@@H](C)Oc1nc2nn(C34COC(CF)(C3)C4)cc2cc1C(=O)Nc1cccn(C2CC2)c1=O [Example 20, (R)-6-(sec-butoxy)-N-(1-cyclopropyl-2-oxo-1,2-dihydropyridin-3-yl)-2-(1-(fluoromethyl)-2-oxabicyclo[2.1.1]hexan-4-yl)-2H-pyrazolo[3,4-b]pyridine-5-carboxamide] |  | 2.26 | 4
17 | CC[C@H](C)Oc1nc2nn(C34COC(CF)(C3)C4)cc2cc1C(=O)Nc1cccn(C2CC2)c1=O [Example 21, (S)-6-(sec-butoxy)-N-(1-cyclopropyl-2-oxo-1,2-dihydropyridin-3-yl)-2-(1-(fluoromethyl)-2-oxabicyclo[2.1.1]hexan-4-yl)-2H-pyrazolo[3,4-b]pyridine-5-carboxamide] |  | 3.33 | 1.1
18 | COCC12CC(n3cc4cc(C(=O)Nc5cccn([C@@H]6C[C@H]6F)c5=O)c(OC5CCC5)cc4n3)(CO1)C2 [Example 57, 6-cyclobutoxy-N-(1-((1R,2R)-2-fluorocyclopropyl)-2-oxo-1,2-dihydropyridin-3-yl)-2-(1-(methoxymethyl)-2-oxabicyclo[2.1.1]hexan-4-yl)-2H-indazole-5-carboxamide] |  | 2.39 | 1.7
